ChEMBL document CHEMBL5120901, “Batatasin III, a Constituent of Dendrobium scabrilingue, Improves Murine Pain-like Behaviors with a Favorable CNS Safety Profile” (J Nat Prod, 2022)
Calls of active or inactive are those of the source.

How the values were obtained:
Type in all cases: functional, cell-based
BV-2 [1] = assay: Anti-inflammatory activity in […] cells assessed as inhibition of LPS-induced NO production at 50 uM pretreated with compound for 1 hr followed by coincubation with LPS for 24 hrs by Griess reagent based analysis; conditions: Mus musculus, time 25.0 hrs
BV-2 [2] = assay: Anti-inflammartory activity against LPS-activated […] cells assessed as reduction in TNF-alpha levels at 50 uM pretreated with compound for 1 hr followed by co-incubation with LPS for 24 hrs by ELISA; conditions: Mus musculus, time 25.0 hrs
BV-2 [3] = assay: Anti-inflammartory activity against LPS-activated […] cells assessed as reduction in IL-6 levels at 50 uM pretreated with compound for 1 hr followed by co-incubation with LPS for 24 hrs by ELISA; conditions: Mus musculus, time 25.0 hrs
RAW264.7 [4] = assay: Anti-inflammartory activity in mouse RAW264.7 cells assessed as inhibition of LPS-induced NO production at 50 uM pretreated with compound for 1 hr followed by incubation with LPS for 12 hrs by Griess reagent based analysis; conditions: time 13.0 hrs
RAW264.7 [5] = assay: Anti-inflammartory activity against LPS-activated mouse RAW264.7 cells assessed as reduction in TNF-alpha levels at 50 uM pretreated with compound for 1 hr followed by incubation with LPS for 12 hrs by ELISA; conditions: time 13.0 hrs
RAW264.7 [6] = assay: Anti-inflammartory activity against LPS-activated mouse RAW264.7 cells assessed as reduction in IL-6 levels at 50 uM pretreated with compound for 1 hr followed by incubation with LPS for 12 hrs by ELISA; conditions: time 13.0 hrs

Measured: Activity

CN(C)c1ccc(O)c2c1C[C@H]1C[C@H]3[C@H](N(C)C)C(O)=C(C(N)=O)C(=O)[C@@]3(O)C(O)=C1C2=O
active: BV-2 [1] | BV-2 [2] | BV-2 [3]

C[C@@H]1C[C@H]2[C@@H]3CCC4=CC(=O)C=C[C@]4(C)[C@@]3(F)[C@@H](O)C[C@]2(C)[C@@]1(O)C(=O)CO
active: RAW264.7 [4] | RAW264.7 [5] | RAW264.7 [6]
